The values below come from US20220324898A1, “PROSTATE SPECIFIC MEMBRANE ANTIGEN (PSMA) LIGANDS COMPRISING AN AMYLASE CLEAVABLE LINKER” (Deutsches Krebsforschungszentrum, priority 2019, published 2022).

Molecules are shown by their SMILES.

Data set [1] can be described thus: Organ distribution of 177Lu-labeled PSMA ligands in LNCaP tumor-bearing mice. Type of data set: in vivo, BALB/c nu/nu mice. The conditions noted are these: 60 pmol via tail vein, mean, n=3; for Organ distribution: Tumor: LNCaP tumor. The procedure:
5×10^6 LNCaP cells were subcutaneously inoculated into the right flank of male 6-week-old BALB/c nu/nu mice (Charles River Laboratories). Tumors were grown for ˜3 weeks, to ˜200 mm^3. 60 pmoles of ^177Lu labelled PSMA-ligands were dissolved in 100 μL 0.9% NaCl and injected per mouse. The solution was injected via the tail vein, followed by sacrifice at various time points. Organs of interest (blood, heart, lung, spleen, liver, kidney, muscle, small intestine, brain, tumor, and femur) were dissected, blotted dry, and weighed. The radioactivity was measured using a gamma counter and calculated as % ID/g, and corrected for ^177Lu decay.
The results are given in the following tables (mean+standard deviation; per time point n=3 animals) (see also FIG. 4): […]

The test system of another data set is LNCaP cells. The experiment in a line: Internalization and cell surface binding of 177Lu-labeled PSMA ligands. Type of data set: cell-based. As to conditions: 30 nM 177Lu-labeled ligand, 45 min, 37° C., blocking with 2-PMPA. The procedure: 10^5 LNCaP cells were seeded in poly-L-lysine coated 24-well cell culture plates. 24 h later, wells were washed and the cells incubated with a 30 nM solution of ^177Lu radiolabeled PSMA-ligand (PSMA-617 or PSMA-MT) in 250 μL medium, for 45 min at 37° C. In the blocking experiments, incubation was performed in the presence of excess of 2-PMPA to assess competition for PSMA. Following incubation, PSMA-ligand containing medium was removed by washing 3 times with 1 mL of ice-cold PBS. Cells were subsequently incubated twice with 0.5 mL glycine-HCl in PBS (50 mM, pH=2.8) for 5 min to extract the cell membrane associated fraction. The cells were then washed with 1 mL of ice-cold PBS, and lysed with 0.5 mL 0.3 M NaOH. The membrane bound and lysed (internalized) fractions were assessed for radioactivity levels using a gamma counter (Packard Cobra II, GMI, Minn., USA). Cell uptake was calculated as percent of the initially added radioactivity detected in 10^5 cells [% IA/10^5 cells].

The next data set has as its system prostate cancer. The conditions noted are these: cited from earlier work.
In a further data set the target is T1, PSMA (Homo sapiens, UniProt Q04609).
T1 construct: endogenous in cells
T1 sequence (Q04609 whole entry): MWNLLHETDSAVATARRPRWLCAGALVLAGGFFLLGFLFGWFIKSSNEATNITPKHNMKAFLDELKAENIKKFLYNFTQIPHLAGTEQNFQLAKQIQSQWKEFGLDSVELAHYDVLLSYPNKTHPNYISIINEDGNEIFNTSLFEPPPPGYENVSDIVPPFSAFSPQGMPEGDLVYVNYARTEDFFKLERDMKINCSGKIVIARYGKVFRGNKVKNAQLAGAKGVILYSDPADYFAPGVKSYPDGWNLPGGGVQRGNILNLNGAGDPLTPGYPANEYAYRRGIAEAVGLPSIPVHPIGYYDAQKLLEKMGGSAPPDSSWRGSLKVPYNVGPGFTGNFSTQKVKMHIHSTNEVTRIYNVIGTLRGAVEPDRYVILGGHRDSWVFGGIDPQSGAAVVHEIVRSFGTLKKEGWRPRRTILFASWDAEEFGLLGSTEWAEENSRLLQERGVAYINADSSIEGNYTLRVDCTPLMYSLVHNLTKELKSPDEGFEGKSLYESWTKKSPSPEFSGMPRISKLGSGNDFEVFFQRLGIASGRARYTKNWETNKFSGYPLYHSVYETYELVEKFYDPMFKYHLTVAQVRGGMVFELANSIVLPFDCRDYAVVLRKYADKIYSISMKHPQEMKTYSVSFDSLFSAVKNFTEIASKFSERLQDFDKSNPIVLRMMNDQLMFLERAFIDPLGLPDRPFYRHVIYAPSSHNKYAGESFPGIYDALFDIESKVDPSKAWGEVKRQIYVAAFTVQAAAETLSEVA
The experiment in a line: Competitive cell binding against 68Ga-labeled PSMA-10 radioligand. As to conditions: non-labeled compound vs 0.8 nM 68Ga-PSMA-10; first preliminary experiments; read-out: IC50 (50% inhibitory concentration), competitive cell binding. On the procedure:
For the determination of competitive cell binding the cells (10^5 per well) were incubated with a 0.8 nM solution of ^68Ga-labeled radioligand [Glu-urea-Lys(Ahx)]2-HBED-CC (PSMA-10, precursor ordered from ABX, Radeberg, Germany) in the presence of 12 different concentrations of analyte (non-labeled compounds, 0-5000 nM, 100 μL/well). After incubation, the mixture was removed and the wells were washed 3 times with PBS using a multiscreen vacuum manifold (Millipore, Billerica, Mass.). Cell-bound radioactivity was measured using a gamma counter (Packard Cobra II, GMI, Minn., USA). The 50% inhibitory concentration (IC50) values were calculated by fitting the data using a nonlinear regression algorithm (GraphPad Software).

The target in another data set is T2, α-Amylase (Homo sapiens, UniProt P0DUB6).
T2 sequence (P0DUB6 16-511): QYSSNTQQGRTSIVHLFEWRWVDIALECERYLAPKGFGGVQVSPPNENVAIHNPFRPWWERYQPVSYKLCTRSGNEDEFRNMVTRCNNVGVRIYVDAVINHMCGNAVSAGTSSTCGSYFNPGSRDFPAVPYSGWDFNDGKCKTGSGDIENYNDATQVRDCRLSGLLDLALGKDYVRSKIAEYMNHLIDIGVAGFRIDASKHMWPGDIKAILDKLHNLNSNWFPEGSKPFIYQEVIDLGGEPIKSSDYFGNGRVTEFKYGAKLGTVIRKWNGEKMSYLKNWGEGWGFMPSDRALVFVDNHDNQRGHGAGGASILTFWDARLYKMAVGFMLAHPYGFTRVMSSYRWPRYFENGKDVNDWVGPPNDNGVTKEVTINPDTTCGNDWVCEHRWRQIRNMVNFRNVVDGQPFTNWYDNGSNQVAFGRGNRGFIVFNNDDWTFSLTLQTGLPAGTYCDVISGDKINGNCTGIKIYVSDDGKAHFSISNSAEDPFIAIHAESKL
The experiment in a line: α-Amylase digestion of PSMA-MT, analysed by RP-HPLC and MALDI-TOF. It counts as in vitro ADME. On the procedure:
10 μl of a solution of PSMA-MT in ultrapure water with a concentration of 1 mM were analyzed by analytic RP-HPLC and MALDI-TOF before the digestion. For digestion 10 μl of α-Amylase (1 U/μl in H2O ) were added to 10 μl of a solution of PSMA-MT in ultrapure water with a concentration of 1 mM and incubated at RT for 1 h. The solution was afterwards analyzed with analytic RP-HPLC and MALDI-TOF to evaluate the reaction.
To investigate the exact digest position of PSMA-MT the different fragments found in the MALDI-TOF after the digest were compared. Two main peaks occurred at 902 g/mol and at 989 g/mol. […] Fragments corresponding to cleavage at cleavage site B could not be detected in the MALDI-TOF.

In data set [2] the target is T3, α-amylase (isolated from the human salivary gland) (Homo sapiens, UniProt P0DUB6).
T3 construct: incubated with α-amylase (isolated from the human salivary gland, Sigma-Aldrich); purchased Sigma-Aldrich; host or cells: human salivary gland (natural source)
T3 sequence (P0DUB6 16-511): T2 sequence (P0DUB6 16-511)
Briefly: Cleavability of the linker by α-amylase, monitored by analytical HPLC. Type of data set: in vitro ADME. The conditions noted are these: in vitro, after 177Lu labeling according to example 1A, analytical HPLC at different times. The procedure:
FIG. 1. The time-dependent cleavability of the compound PSMA-MT by α-amylase is shown. ^177Lu-PSMA-MT was incubated with an α-amylase (isolated from the human salivary gland) and enzymatic cleavage was monitored at different times by analytical HPLC.
The radiolabelled compound was incubated with α-amylase (isolated from the human salivary gland, Sigma-Aldrich) according to instructions of the manufacturer and enzymatic cleavage was monitored at different times by analytical HPLC (see FIG. 1).

On to `O=C([O-])CN1CCN(CC(=O)[O-])CCN(CC(=O)NCC2CCC(C(=O)N[C@@H](Cc3ccc4ccccc4c3)C(=O)NCCCC[C@H](NC(=O)N[C@@H](CCC(=O)O)C(=O)O)C(=O)O)CC2)CCN(CC(=O)[O-])CC1.[177Lu+3]` (some centres unmarked) [177Lu-PSMA-617, reference compound], for which, in data set [1] (1 h), the “Organ distribution: Blood” value is given as 0.31 % ID/g, the “Organ distribution: Brain” value is given as 0.02 % ID/g, the “Organ distribution: Heart” value worked out at 0.17 % ID/g and the “Organ distribution: Kidney (first Kidney column)” value is 143.55 % ID/g. Moreover, in data set [1] (1 h), the “Organ distribution: Kidney (second Kidney column)” value was 146.77 % ID/g, the “Organ distribution: Liver” value came out at 4.73 % ID/g, the “Organ distribution: Lung” value came out at 0.61 % ID/g and the “Organ distribution: Muscle” value was 0.07 % ID/g. In addition, in data set [1] (1 h), the “Organ distribution: Small Intestine” value is reported as 0.18 % ID/g, the “Organ distribution: Spleen” value was 5.86 % ID/g, the “Organ distribution: Tail” value is 3.46 % ID/g and the “Organ distribution: Tumor” value turned out to be 19.20 % ID/g. In data set [1] (4 h), the “Organ distribution: Blood” value came out at 0.03 % ID/g, the “Organ distribution: Brain” value is recorded as 0.01 % ID/g, the “Organ distribution: Heart” value is given as 0.03 % ID/g and the “Organ distribution: Kidney (first Kidney column)” value came to 5.52 % ID/g. In addition, in data set [1] (4 h), the “Organ distribution: Kidney (second Kidney column)” value amounted to 5.50 % ID/g, the “Organ distribution: Liver” value stood at 1.57 % ID/g, the “Organ distribution: Lung” value was found to be 0.08 % ID/g and the “Organ distribution: Muscle” value amounted to 0.01 % ID/g. Also, in data set [1] (4 h), the “Organ distribution: Small Intestine” value turned out to be 0.04 % ID/g, the “Organ distribution: Spleen” value stood at 1.20 % ID/g, the “Organ distribution: Tail” value was 0.78 % ID/g and the “Organ distribution: Tumor” value is on record as 14.77 % ID/g. Further, in the data set with LNCaP cells, the “Specifically cell surface bound (cell uptake), mean” value is on record as 4,09228993 % IA/10^5 cells and the “Specifically internalized (cell uptake), mean” value is 2,63598315 % IA/10^5 cells.

With `O=C([O-])CN1CCN(CC(=O)[O-])CCN(CC(=O)N2CCN(c3cccc(C4OCC5OC(OC6C(CO)OC(OC7C(CO)OC(Oc8ccc(CCC(=O)NCC9CCC(C(=O)NC(Cc%10ccc%11ccccc%11c%10)C(=O)NCCCCC(NC(=O)NC(CCC(=O)O)C(=O)O)C(=O)O)CC9)cc8)C(O)C7O)C(O)C6O)C(O)C(O)C5O4)c3)CC2)CCN(CC(=O)[O-])CC1.[177Lu+3]` (centres unmarked) [177Lu-PSMA-MT], in data set [1] (1 h), the “Organ distribution: Blood” value turned out to be 0.35 % ID/g, the “Organ distribution: Brain” value was determined as 0.02 % ID/g, the “Organ distribution: Heart” value was determined as 0.16 % ID/g and the “Organ distribution: Kidney (first Kidney column)” value is listed as 144.27 % ID/g. In data set [1] (1 h), the “Organ distribution: Kidney (second Kidney column)” value worked out at 142.04 % ID/g, the “Organ distribution: Liver” value is recorded as 2.07 % ID/g, the “Organ distribution: Lung” value amounted to 0.56 % ID/g and the “Organ distribution: Muscle” value came out at 0.08 % ID/g. Besides, in data set [1] (1 h), the “Organ distribution: Small Intestine” value is on record as 0.15 % ID/g, the “Organ distribution: Spleen” value stood at 3.83 % ID/g, the “Organ distribution: Tail” value is reported as 4.61 % ID/g and the “Organ distribution: Tumor” value was 12.83 % ID/g. In data set [1] (4 h), the “Organ distribution: Blood” value worked out at 0.04 % ID/g, the “Organ distribution: Brain” value came out at 0.01 % ID/g, the “Organ distribution: Heart” value was 0.04 % ID/g and the “Organ distribution: Kidney (first Kidney column)” value is reported as 20.59 % ID/g. In data set [1] (4 h), the “Organ distribution: Kidney (second Kidney column)” value worked out at 19.45 % ID/g, the “Organ distribution: Liver” value is 4.58 % ID/g, the “Organ distribution: Lung” value turned out to be 0.10 % ID/g and the “Organ distribution: Muscle” value stood at 0.02 % ID/g. In data set [1] (4 h), the “Organ distribution: Small Intestine” value stood at 0.04 % ID/g, the “Organ distribution: Spleen” value was determined as 3.94 % ID/g, the “Organ distribution: Tail” value is recorded as 0.50 % ID/g and the “Organ distribution: Tumor” value was determined as 9.18 % ID/g. For the same compound, in the data set with LNCaP cells, the “Specifically cell surface bound (cell uptake), mean” value is 4,86794251 % IA/10^5 cells and the “Specifically internalized (cell uptake), mean” value is listed as 2,14459836 % IA/10^5 cells.

Turning to `O=C([O-])CC[C@H](NC(=O)N[C@@H](CCCCNC(=O)[C@H](Cc1ccc2ccccc2c1)NC(=O)C1CCC(CNC(=O)CN2CCN(CC(=O)[O-])CCN(CC(=O)[O-])CCN(CC(=O)[O-])CC2)CC1)C(=O)[O-])C(=O)[O-].[225Ac].[H+].[H+].[H+]` (some centres unmarked) [225Ac-PSMA-617], the PSA value entry with prostate cancer (both patients) is recorded as “below the detectability limit”. In addition, in the data set on prostate cancer (two patients with extremely advanced and end-stage disease), the Clinical response entry is reported as “complete remission”.

With `O=C(O)CCC(NC(=O)NC(CCCCNC(=O)C(Cc1ccc2ccccc2c1)NC(=O)C1CCC(CNC(=O)CN2CCN(CC(=O)O)CCN(CC(=O)O)CCN(CC(=O)O)CC2)CC1)C(=O)O)C(=O)O` (centres unmarked) [PSMA-617, 2-[3-(1-Carboxy-5-{3-naphthalen-2-yl-2-[(4-{[2-(4,7,10-tris-carboxymethyl-1,4,7,10-tetraaza-cyclododec-1-yl)-acetylamino]-methyl}-cyclohexanecarbonyl) -amino]-propionylamino}-pentyl)-ureido]-pentanedioic acid, reference compound], the IC50 on PSMA was approximately 20 nM.

Turning to `O=C(O)CCC(NC(=O)NC(CCCCNC(=O)C(Cc1ccc2ccccc2c1)NC(=O)C1CCC(CNC(=O)CCc2ccc(OC3OC(CO)C(OC4OC(CO)C(OC5OC6COC(c7cccc(N8CCN(C(=O)CN9CCN(CC(=O)O)CCN(CC(=O)O)CCN(CC(=O)O)CC9)CC8)c7)OC6C(O)C5O)C(O)C4O)C(O)C3O)cc2)CC1)C(=O)O)C(=O)O` (centres unmarked) [PSMA-MT, 1-(4-(3-oxo-3-PSMA-propyl)phenyl)-4″,6″-(3-(4-DOTA-piperazine)benzylidene)maltotriose], the “Turnover of PSMA-MT on digestion with α-Amylase (original mass peak disappeared)” value on α-Amylase (1 h at RT, 1 U/μl α-Amylase, 1 mM PSMA-MT, MALDI-TOF) is given as “complete turnover”. For the same compound, at α-Amylase (MALDI-TOF after digest, fragments for cleavage site B could not be detected), the “Alpha-amylase cleavage site whose predicted fragments were found” value is “cleavage site A”. Further, in data set [2], the “Basic cleavability of the linker by α-amylases” value is on record as “demonstrated”. In addition, the IC50 at PSMA is approximately 39 nM.
